Measurements: PubChem BioAssay (NCI)
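Results reflect a 48-hour exposure of cells in 96-well plates to compound at five concentrations. GI50: concentration for 50% inhibition of growth. TGI is the concentration that stops growth completely.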

Tests used:
Assay in all cases: DTP human tumour cell line panel, 48 h
[1] = system: UO-31 renal
[2] = system: SF-539 CNS
[3] = system: OVCAR-3 ovarian
[4] = system: UACC-257 melanoma
[5] = system: IGROV1 ovarian
[6] = system: COLO 205 colon
[7] = system: SK-OV-3 ovarian
[8] = system: HCC-2998 colon
[9] = system: EKVX NSCLC
[10] = system: A549 NSCLC

Compound | TGI [1] [µM] | TGI [2] [µM] | TGI [3] [µM] | TGI [4] [µM] | TGI [5] [µM] | TGI [6] [µM] | TGI [7] [µM] | TGI [8] [µM] | TGI [9] [µM] | TGI [10] [µM] | GI50 [1] [µM] | GI50 [2] [µM] | GI50 [3] [µM] | GI50 [4] [µM] | GI50 [5] [µM] | GI50 [6] [µM] | GI50 [7] [µM] | GI50 [8] [µM] | GI50 [9] [µM] | GI50 [10] [µM]
COc1cc(/C=C(\C#N)c2ccccc2)cc(OC)c1 | > 100 | > 100 | > 100 | 51 | > 100 | > 100 | > 100 | > 100 | > 100 | > 100 |  |  |  |  |  |  |  |  |  | 
ClCC[N+]12CC[N+](CCCl)(CC1)C2 | > 100 | > 100 | > 100 | > 100 | > 100 | > 100 | > 100 | > 100 | > 100 | > 100 |  |  |  |  |  |  |  |  |  | 
O=C1CC2c3ccccc3CCC2c2ccccc21 (stereo not given) | 50.8 | 53.3 | 41.8 | 73.2 | 86.6 | 11.2 | > 100 | 50.5 | 15.3 | > 100 |  |  |  |  |  |  |  |  |  | 
C=CC/C=C/C/C=C/CCCCCCCc1cccc(O)c1C(=O)O | 79.1 | > 100 | > 100 | > 100 | > 100 | > 100 | 79.8 | > 100 | > 100 | > 100 |  |  |  |  |  |  |  |  |  | 
O=C1CC2CCCC23CC2(CCN13)OCCO2 (stereo not given) | > 100 | > 100 | > 100 | > 100 | > 100 | > 100 | > 100 | > 100 | > 100 | > 100 |  |  |  |  |  |  |  |  |  | 
ClCc1cccc(Cn2cnc3nc(Cl)nc(Cl)c32)c1 | 9.1 | 0.496 | 2.86 | 7.35 | 8.92 | 4.22 | 22 | 2.9 | 2.2 | 19.8 | 4.43 | 0.189 | 1.53 | 2.48 | 4.45 | 1.69 | 8.41 | 1.52 | 0.84 | 6.46
CC(C)(C)c1cc(C(O)(C(F)(F)F)C(F)(F)F)c2c(c1)C(C(F)(F)F)(C(F)(F)F)OC(C(C)(C)C)N2 (stereo not given) | 19.3 | 6.68 | 9.43 | 9.48 | 18 | 13.5 | 5.58 | 15.7 | 17.1 | 13.6 |  |  |  |  |  |  |  |  |  | 
CCNC(=O)Nc1cccc(NC(=O)NCC)n1 | > 100 | > 100 | > 100 | > 100 | > 100 | > 100 | > 100 | > 100 | > 100 | > 100 |  |  |  |  |  |  |  |  |  | 
CCOc1cc(C(C)(C)C)ccc1C1=N[C@@](C)(c2ccc(Cl)cc2)[C@@](C)(c2ccc(Cl)cc2)N1C(=O)N1CCN(CCCS(C)(=O)=O)CC1 | 8.59 | 16.9 | 25.7 | 15.8 | 10.9 | 32.6 | 32.9 | 6.95 | 23.7 | 19.4 | 0.401 | 5.12 | 11.5 | 2.02 | 1.4 | 9.53 | 14 | 2.51 | 4.3 | 1.01
